For this assay, the target named is human H4 receptor (Homo sapiens (Human), UniProt Q9H3N8). The experiment in a line: H4 Binding assay ([3H]histamine competition, membranes from CHO-K1 cells transfected with human H4 receptor). The method, then: Affinity for histamine H4-receptor was determined by H4 Binding assay:
• Membranes from CHO-K1 cells transfected with human H4 receptor and microplates of 96-well format were used. • For competition studies cell membranes were homogenated in Tris-HCl 50 mM, EDTA 5 mM, pH 7.4 and added to the microplate at the concentration of approximately 15 μg/well. […] Non specific binding was defined using 10 μM unlabeled histamine and the total incubation volume was 275 μl per well. • Incubations were performed under gentle agitation at 25° C. for 60 min and concluding with a rapid vacuum filtration using pre-soaked filters (0.5% polyethylenimine). After ten rapid washes with cold wash buffer (50 mM Tris-HCl buffer) the filter plates were dried at room temperature for 30 min. • Finally, scintillation liquid (Microscint 20) was added to the whole microplate in order to measure the radioactivity reattained on the filters using a specific scintillation counter (Top Count—NXT). […] H1 Binding Assay Materials

Where [1] appears, read: affinity for human histamine H4 receptor, class symbols, read-out: ACTIVITY CLASS hH4R (Ki).

Where two headings read alike, the source gives them in different places. Where only a bound is given, the exact number is not on record here.

In general, IC50 refers to the concentration that inhibits the measured activity by half. Low values mean inhibition by little substance, high ones a need for much substance. For orientation: inhibition means the percentage by which the read-out fell short of the control. Usually Ki stands for the dissociation constant of the complex between target and ligand, obtained from inhibition or displacement.

human H4 receptor, sequence (Q9H3N8 whole entry): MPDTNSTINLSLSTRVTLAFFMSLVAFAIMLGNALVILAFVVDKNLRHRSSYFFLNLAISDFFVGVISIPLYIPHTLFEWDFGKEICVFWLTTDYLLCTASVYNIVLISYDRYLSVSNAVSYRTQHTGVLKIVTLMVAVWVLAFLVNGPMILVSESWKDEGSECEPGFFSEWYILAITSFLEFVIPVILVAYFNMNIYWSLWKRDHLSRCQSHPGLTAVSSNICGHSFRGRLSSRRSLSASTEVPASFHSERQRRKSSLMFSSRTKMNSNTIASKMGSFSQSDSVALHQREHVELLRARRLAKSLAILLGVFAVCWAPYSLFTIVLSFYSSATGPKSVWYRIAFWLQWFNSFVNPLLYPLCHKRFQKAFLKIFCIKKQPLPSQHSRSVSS

For `CN1CCN(c2nc(NCc3cccs3)c3cnc(Cl)cc3n2)CC1` [Example 3P, reference compound], under “histamine H4 receptor binding”, the concentration for half-maximal inhibition (IC50) worked out at 889 nM. The molecule also gave an inhibition at 1 µM (histamine H4 receptor binding, compounds initially evaluated at 1 μM) of 68%. Also, the Ki (histamine H4 receptor, comparative compounds, read-out: Ki) came to 340 nM.

In the case of `CN1CCN(c2nc(NCCc3cccs3)c3cc(Cl)ncc3n2)CC1` [Example 6, 6-chloro-2-(4-methylpiperazin-1-yl)-N-(2-(thiophen-2-yl)ethyl)pyrido[3,4-d]pyrimidin-4-amine], the Ki under setting [1] is under 1000 nM.

In the case of `CN1CCN(c2nc(NCc3nccs3)c3cc(Cl)ncc3n2)CC1` [Example 7, 6-chloro-2-(4-methylpiperazin-1-yl)-N-(thiazol-2-ylmethyl)pyrido[3,4-d]pyrimidin-4-amine], the Ki under setting [1] was under 1000 nM.

`CN1CCN(c2nc(NCc3ncc[nH]3)c3cc(Cl)ncc3n2)CC1` [Example 8, N-((1H-imidazol-2-yl)methyl)-6-chloro-2-(4-methylpiperazin-1-yl)pyrido[3,4-d]pyrimidin-4-amine]: the Ki under setting [1] is under 1000 nM.

Regarding `CNS(=O)(=O)CCNc1nc(N2CCN(C)CC2)nc2cnc(Cl)cc12` [Example 14, 2-((6-chloro-2-(4-methylpiperazin-1-yl)pyrido[34-d]pyrimidin-4-yl)amino)-N-methylethane-1-sulfonamide], the Ki under setting [1] is under 100 nM.

With `CN1CCN(c2nc(NCCS(=O)(=O)NCc3ccccc3)c3cc(Cl)ncc3n2)CC1` [Example 15, N-benzyl-2-((6-chloro-2-(4-methylpiperazin-1-yl)pyrido[3,4-d]pyrimidin-4-yl)amino)ethane-1-sulfonamide], the Ki under setting [1] is under 100 nM.

Take `CN1CCN(c2nc(NCCS(=O)(=O)Nc3ccccc3)c3cc(Cl)ncc3n2)CC1` [Example 16, 2-((6-chloro-2-(4-methylpiperazin-1-yl)pyrido[3,4-d]pyrimidin-4-yl)amino)-N-phenylethane-1-sulfonamide]: the Ki under setting [1] was under 100 nM.

With `CN1CCN(c2nc(NCCS(=O)(=O)N3CCOCC3)c3cc(Cl)ncc3n2)CC1` [Example 18, 6-chloro-2-(4-methylpiperazin-1-yl)-N-(2-(morpholinosulfonyl)ethyl)pyrido[3,4-d]pyrimidin-4-amine], the Ki under setting [1] was under 100 nM.

With `CCCCNc1nc(N2CCN(C)CC2)nc2cnc(Cl)cc12` [Example 22, N-butyl-6-chloro-2-(4-methylpiperazin-1-yl)pyrido[3,4-d]pyrimidin-4-amine], the inhibitory constant (Ki) under setting [1] is under 1000 nM.

For the molecule `O=S(=O)(CCNc1nc(N2CCNCC2)nc2cnc(Cl)cc12)Nc1ccccc1` [Example 26, 2-((6-chloro-2-(piperazin-1-yl)pyrido[3,4-d]pyrimidin-4-yl)amino)-N-phenylethane-1-sulfonamide], the Ki under setting [1] is under 100 nM.

Regarding `CN(c1ccccc1)S(=O)(=O)CCNc1nc(N2CCNCC2)nc2cnc(Cl)cc12` [Example 27, 2-((6-chloro-2-(piperazin-1-yl)pyrido[3,4-d]pyrimidin-4-yl)amino)-N-methyl-N-phenylethane-1-sulfonamide], under setting [1], the Ki was under 100 nM.

For `O=S(=O)(CCNc1nc(N2CCNCC2)nc2cnc(Cl)cc12)N1CCOCC1` [Example 28, 6-chloro-N-(2-(morpholinosulfonyl)ethyl)-2-(piperazin-1-yl)pyrido[3,4-d]pyrimidin-4-amine], the inhibitory constant (Ki) under setting [1] was under 100 nM.

`O=S(=O)(CCNc1nc(N2CCN3CCCC3C2)nc2cnc(Cl)cc12)Nc1ccccc1` (centres unmarked) [Example 37, 2-((6-chloro-2-(hexahydropyrrolo[1,2-a]pyrazin-2(1H)-yl)pyrido[3,4-d]pyrimidin-4-yl)amino)-N-phenylethane-1-sulfonamide]: the Ki under setting [1] is under 100 nM.

Consider `O=S(=O)(CCNc1nc(N2CCN3CCCC3C2)nc2cnc(Cl)cc12)N1CCOCC1` (centres unmarked) [Example 38, 6-chloro-2-(hexahydropyrrolo[1,2-a]pyrazin-2(1H)-yl)-N-(2-(morpholinosulfonyl)ethyl)pyrido[3,4-d]pyrimidin-4-amine], for which the inhibition constant (Ki) under setting [1] was under 100 nM.

For the molecule `O=S(=O)(CCNc1nc(C2=CCNCC2)nc2cnc(Cl)cc12)Nc1ccccc1` [Example 41, 2-((6-chloro-2-(1,2,3,6-tetrahydropyridin-4-yl)pyrido[3,4-d]pyrimidin-4-yl)amino)-N-phenylethane-1-sulfonamide], the Ki was under 100 nM.

Regarding `Cc1cc2c(NCc3cccs3)nc(N3CCN(C)CC3)nc2cn1` [Example 46, 6-methyl-2-(4-methylpiperazin-1-yl)-N-(thiophen-2-ylmethyl)pyrido[3,4-d]pyrimidin-4-amine], the Ki under setting [1] is under 1000 nM.

As to `CCCc1cc2c(NCCc3cccs3)nc(N3CCN(C)CC3)nc2cn1` [Example 50, 2-(4-methylpiperazin-1-yl)-6-propyl-N-(2-(thiophen-2-yl)ethyl)pyrido[3,4-d]pyrimidin-4-amine], the Ki under setting [1] was under 1000 nM.

Take `CC(C)c1cc2c(NCc3ccco3)nc(N3CCN(C)CC3)nc2cn1` [Example 51, N-(furan-2-ylmethyl)-6-isopropyl-2-(4-methylpiperazin-1-yl)pyrido[3,4-d]pyrimidin-4-amine]: the inhibitory constant (Ki) under setting [1] was under 1000 nM.

For `CC(C)c1cc2c(NCc3cccs3)nc(N3CCN(C)CC3)nc2cn1` [Example 52, 6-isopropyl-2-(4-methylpiperazin-1-yl)-N-(thiophen-2-ylmethyl)pyrido[3,4-d]pyrimidin-4-amine], the Ki under setting [1] was under 100 nM.

Turning to `CC(C)c1cc2c(NCCc3cccs3)nc(N3CCN(C)CC3)nc2cn1` [Example 53, 6-isopropyl-2-(4-methylpiperazin-1-yl)-N-(2-(thiophen-2-yl)ethyl)pyrido[3,4-d]pyrimidin-4-amine], the inhibitory constant (Ki) under setting [1] is under 1000 nM.

`CN1CCN(c2nc(NCCc3nccs3)c3cc(Cl)ncc3n2)CC1` [Example 70, 6-chloro-2-(4-methylpiperazin-1-yl)-N-(2-(thiazol-2-yl)ethyl)pyrido[3,4-d]pyrimidin-4-amine]: the Ki under setting [1] is under 1000 nM.

For `CN1CCN(c2nc(NCCS(N)(=O)=O)c3cc(Cl)ncc3n2)CC1` [Example 71, 2-((6-chloro-2-(4-methylpiperazin-1-yl)pyrido[3,4-d]pyrimidin-4-yl)amino)ethane-1-sulfonamide], under setting [1], the Ki was under 100 nM.

With `Cc1ccccc1NS(=O)(=O)CCNc1nc(N2CCN(C)CC2)nc2cnc(Cl)cc12` [Example 73, 2-((6-chloro-2-(4-methylpiperazin-1-yl)pyrido[3,4-d]pyrimidin-4-yl)amino)-N-(o-tolyl)ethane-1-sulfonamide], the Ki under setting [1] was under 100 nM.

For the molecule `CN1CCN(c2nc(NCCS(=O)(=O)Nc3ccccc3N)c3cc(Cl)ncc3n2)CC1` [Example 75, N-(2-aminophenyl)-2-((6-chloro-2-(4-methylpiperazin-1-yl)pyrido[3,4-d]pyrimidin-4-yl)amino)ethane-1-sulfonamide], under setting [1], the inhibition constant Ki is under 1000 nM.

For `CN1CCN(c2nc(NCCS(=O)(=O)Nc3cccc(Cl)c3)c3cc(Cl)ncc3n2)CC1` [Example 76, 2-((6-chloro-2-(4-methylpiperazin-1-yl)pyrido[3,4-d]pyrimidin-4-yl)amino)-N-(3-chlorophenyl)ethane-1-sulfonamide], under setting [1], the Ki is under 100 nM.

For the molecule `CN1CCN(c2nc(NCCS(=O)(=O)Nc3cccc(OC(F)(F)F)c3)c3cc(Cl)ncc3n2)CC1` [Example 77, 2-((6-chloro-2-(4-methylpiperazin-1-yl)pyrido[3,4-d]pyrimidin-4-yl)amino)-N-(3-(trifluoromethoxy)phenyl)ethane-1-sulfonamide], under setting [1], the Ki is under 1000 nM.

As to `CN1CCN(c2nc(NCCS(=O)(=O)Nc3cccc(C(F)(F)F)c3)c3cc(Cl)ncc3n2)CC1` [Example 78, 2-((6-chloro-2-(4-methylpiperazin-1-yl)pyrido[3,4-d]pyrimidin-4-yl)amino)-N-(3-(trifluoromethyl)phenyl)ethane-1-sulfonamide], the Ki under setting [1] was under 100 nM.

For `Cc1cccc(NS(=O)(=O)CCNc2nc(N3CCN(C)CC3)nc3cnc(Cl)cc23)c1` [Example 79, 2-((6-chloro-2-(4-methylpiperazin-1-yl)pyrido[3,4-d]pyrimidin-4-yl)amino)-N-(m-tolyl)ethane-1-sulfonamide], under setting [1], the Ki is under 100 nM.

Take `COc1cccc(NS(=O)(=O)CCNc2nc(N3CCN(C)CC3)nc3cnc(Cl)cc23)c1` [Example 80, 2-((6-chloro-2-(4-methylpiperazin-1-yl)pyrido[3,4-d]pyrimidin-4-yl)amino)-N-(3-methoxyphenyl)ethane-1-sulfonamide]: the Ki under setting [1] was under 100 nM.

As for `CSc1cccc(NS(=O)(=O)CCNc2nc(N3CCN(C)CC3)nc3cnc(Cl)cc23)c1` [Example 81, 2-((6-chloro-2-(4-methylpiperazin-1-yl)pyrido[3,4-d]pyrimidin-4-yl)amino)-N-(3-(methylthio)phenyl)ethane-1-sulfonamide], the Ki under setting [1] was under 100 nM.

For `CN1CCN(c2nc(NCCS(=O)(=O)Nc3ccc(Cl)cc3)c3cc(Cl)ncc3n2)CC1` [Example 82, 2-((6-chloro-2-(4-methylpiperazin-1-yl)pyrido[3,4-d]pyrimidin-4-yl)amino)-N-(4-chlorophenyl)ethane-1-sulfonamide], the Ki under setting [1] is under 100 nM.

As to `CN1CCN(c2nc(NCCS(=O)(=O)Nc3ccc(C(F)(F)F)cc3)c3cc(Cl)ncc3n2)CC1` [Example 83, 2-((6-chloro-2-(4-methylpiperazin-1-yl)pyrido[3,4-d]pyrimidin-4-yl)amino)-N-(4-(trifluoromethyl)phenyl)ethane-1-sulfonamide], the inhibition constant Ki under setting [1] was under 1000 nM.

As to `Cc1ccc(NS(=O)(=O)CCNc2nc(N3CCN(C)CC3)nc3cnc(Cl)cc23)cc1` [Example 84, 2-((6-chloro-2-(4-methylpiperazin-1-yl)pyrido[3,4-d]pyrimidin-4-yl)amino)-N-(p-tolyl)ethane-1-sulfonamide], the Ki under setting [1] was under 100 nM.

The record behind these values is patent US12492199B2, “Pyridopyrimidines as histamine H4-receptor inhibitors” (FAES FARMA, S.A., priority 2018, dated 2025).
